Source: PMC7504092, “Synthesis and Antiplasmodial Evaluation of 4-Carboxamido- and 4-Alkoxy-2-Trichloromethyl Quinazolines” (Molecules, 2020)
Read-outs that look alike come from different tables or passages of the source.

Legend:
K1 P. falciparum strain = assay: In vitro antiplasmodial evaluation (SYBR Green I fluorescence-based method); assay type: cell-based; conditions: for EC50: read-out: PfK1 EC50; for SI (selectivity index = CC50/EC50): CC50 HepG2 / EC50 PfK1; for IC50: K1, Figures 2 and 3, read-out: IC50 P. falci. K1; for activity against P. falciparum (in words): K1 strain
Procedure: It was maintained in continuous culture as described previously by Trager and Jensen. […] Parasitemia was maintained daily at between 1 and 3%. The P. falciparum drug susceptibility test was carried out by comparing quantities of DNA in treated and control cultures of parasite in human erythrocytes according to an SYBR Green I fluorescence-based method using a 96-well fluorescence plate reader. […] Duplicate assays were performed for each sample. After incubation, plates were frozen at -20 °C for 24 h. […] Fifteen μL of each sample were transferred to 96-well flat bottom non-sterile black plates (Greiner Bio-one) already containing 15 μL of the SYBR Green I lysis buffer (2X SYBR Green I, 20 mM Tris base pH 7.5, 20 mM EDTA, 0.008% w/v saponin, 0.08% w/v Triton X-100).

[1] = In vitro cytotoxicity evaluation (MTT); assay type: cell-based; conditions: human
Procedure: Triplicate assays were performed for each sample. Each plate-well was then microscope-examined for possible precipitate formation before the medium was aspirated from the wells. 100 μL of MTT (3-(4,5-dimethyl-2-thiazolyl)-2,5-diphenyl-2H-tetrazolium bromide) solution (0.5 mg/mL in medium without FBS) were then added to each well. […] After this time, the MTT solution was removed and DMSO (100 μL) was added to dissolve the resulting blue formazan crystals. Plates were shaken vigorously (700 rpm) for 10 min. The absorbance was measured at 570 nm with 630 nm as reference wavelength using a BIO-TEK ELx808 Absorbance Microplate Reader (LabX, Midland, ON, Canada). DMSO was used as blank and doxorubicin (purchased from Sigma Aldrich) as positive control. Cell viability was calculated as percentage of control (cells incubated without compound). […] CC50 values represent the mean value calculated from three independent experiments.

[2] = Plasmodium falciparum, K1, 72 h, multi-resistant K1 P. falciparum strain, 72 h incubation
[3] = multi-resistant K1 P. falciparum strain, 72 h incubation

SMILES	EC50 (K1 P. falciparum strain; [2]) [µM]	melting point [°C]	EC50 (K1 P. falciparum strain; [3]) [µM]	IC50 (K1 P. falciparum strain; Plasmodium falciparum) [µM]	EC50 (K1 P. falciparum strain; Plasmodium falciparum, K1, 72 h) [µM]	CC50 at 72 h [1] [µM]	SI (selectivity index = CC50/EC50) (K1 P. falciparum strain)	activity against P. falciparum (in words) (K1 P. falciparum strain)
CCN(CC)CCCC(C)Nc1ccnc2cc(Cl)ccc12 (stereo not shown) [Chloroquine, reference compound]					0.8			
COc1cccc2c1C(=O)c1c(O)c3c(c(O)c1C2=O)C[C@@](O)(C(=O)CO)C[C@@H]3O[C@H]1C[C@H](N)[C@H](O)[C@H](C)O1 [Doxorubicin, reference compound]						0.2		
C[C@H]1c2cccc(O)c2C(=O)C2=C(O)[C@]3(O)C(=O)C(C(N)=O)=C(O)[C@@H](N(C)C)[C@@H]3[C@@H](O)[C@@H]21 [Doxycycline, reference compound]	6					20		
O=C(c1ccc(Cl)cc1)N(C(=O)c1ccc(Cl)cc1)c1nc(C(Cl)(Cl)Cl)nc2ccccc12 [Molecule 3, 4-Chloro-N-(4-Chlorobenzoyl)-N-(2-Trichloromethylquinazolin-4-yl)benzamide]	1.46	218.2				20	13.7	
O=C(Nc1nc(C(Cl)(Cl)Cl)nc2ccccc12)c1ccc([N+](=O)[O-])cc1 [Molecule 6, 4-Nitro-N-(2-Trichloromethylquinazolin-4-yl)benzamide]	4.18	214				22.1	5.3	
O=C(Nc1nc(C(Cl)(Cl)Cl)nc2ccccc12)c1cccc([N+](=O)[O-])c1 [Molecule 7, 3-Nitro-N-(2-Trichloromethylquinazolin-4-yl)benzamide]	3.37					24.8		
O=C(Nc1nc(C(Cl)(Cl)Cl)nc2ccccc12)c1ccccc1Cl [Molecule 13, 2-Chloro-N-(2-Trichloromethylquinazolin-4-yl)benzamide]	9.04					27.3		
N#Cc1ccc(C(=O)Nc2nc(C(Cl)(Cl)Cl)nc3ccccc23)cc1 [Molecule 15, 4-Cyano-N-(2-Trichloromethylquinazolin-4-yl)benzamide]	3.5					31.4		
CC(C)C(=O)Nc1nc(C(Cl)(Cl)Cl)nc2ccccc12 [Molecule 22, N-(2-Trichloromethylquinazolin-4-yl)isobutyramide]	3.5	161				> 31.2	>9.0	
CC(C)(C)C(=O)Nc1nc(C(Cl)(Cl)Cl)nc2ccccc12 [Molecule 23, N-(2-Trichloromethylquinazolin-4-yl)pivalamide]	1.8	157				34.9	19.4	
O=C(Nc1nc(C(Cl)(Cl)Cl)nc2ccccc12)C1CCCCC1 [Molecule 25, N-(2-Trichloromethylquinazolin-4-yl)cyclohexanecarboxamide]	2.4	214				> 15.6	>6.5	
CCCCOc1nc(C(Cl)(Cl)Cl)nc2ccccc12 [Molecule 29, 4-Butoxy-2-Trichloromethylquinazoline]	5.8					82.4	14.2	
ClCCCCOc1nc(C(Cl)(Cl)Cl)nc2ccccc12 [Molecule 38, 4-(4-Chlorobutoxy)-2-Trichloromethylquinazoline]	4.3					50.5	11.7	
ClC(Cl)(Cl)c1nc(OCCN2CCCCC2)c2ccccc2n1 [Molecule 43, 4-[2-(Piperidin-1-yl)ethoxy]-2-Trichloromethylquinazoline]	1.4					23.4	16.5	
ClC(Cl)(Cl)c1nc(OCCN2CCCC2)c2ccccc2n1 [Molecule 44, 4-[2-(Pyrrolidin-1-yl)ethoxy]-2-Trichloromethylquinazoline]	≤ 2		1.3			43.7		
COc1ccc(C(=O)Nc2nc(C)nc3ccccc23)cc1 [Molecule 45, 4-methoxy-N-(2-Methylquinazolin-4-yl)benzamide]				> 50				inactive
COc1ccc(C(=O)Nc2nc(C(F)(F)F)nc3ccccc23)cc1 [Molecule 46, 4-methoxy-N-(2-Trifluoromethylquinazolin-4-yl)benzamide]		190		> 50				inactive
CCN(CC)CCOc1nc(C)nc2ccccc12 [Molecule 47, N,N-Diethyl-2-[(2-Methylquinazolin-4-yl)oxy]ethanamine]		230		> 50				inactive
CCN(CC)CCOc1nc(C(F)(F)F)nc2ccccc12 [Molecule 48, N,N-Diethyl-2-[(2-Trifluoromethylquinazolin-4-yl)oxy]ethan-1-Amine]				> 50				inactive
CCN(CC)CCOc1ncnc2ccccc12 [Molecule 49, N,N-Diethyl-2-(Quinazolin-4-yloxy)ethanamine]				> 50				inactive

The next lines start with results.

EC50 (K1 P. falciparum strain; [2]) [µM]	melting point [°C]	EC50 (K1 P. falciparum strain; [3]) [µM]	IC50 (K1 P. falciparum strain; Plasmodium falciparum) [µM]	SMILES	EC50 (K1 P. falciparum strain; Plasmodium falciparum, K1, 72 h) [µM]	CC50 at 72 h [1] [µM]	SI (selectivity index = CC50/EC50) (K1 P. falciparum strain)	activity against P. falciparum (in words) (K1 P. falciparum strain)
	199			O=C(Nc1nc(C(Cl)(Cl)Cl)nc2ccccc12)c1ccc(Cl)cc1 [Molecule 2, 4-Chloro-N-(2-Trichloromethylquinazolin-4-yl)benzamide]		21		
1.76	183			O=C(Nc1nc(C(Cl)(Cl)Cl)nc2ccccc12)c1ccccc1 [Molecule 5, N-(2-Trichloromethylquinazolin-4-yl)benzamide]		24.2	13.8	
≤ 2	166	1.34		O=C(Nc1nc(C(Cl)(Cl)Cl)nc2ccccc12)c1ccc(F)cc1 [Molecule 9, 4-Fluoro-N-(2-Trichloromethylquinazolin-4-yl)benzamide]		29.4		
2.86	152			O=C(Nc1nc(C(Cl)(Cl)Cl)nc2ccccc12)c1cccc(F)c1 [Molecule 10, 3-Fluoro-N-(2-Trichloromethylquinazolin-4-yl)benzamide]		19.9	6.9	
1.54				O=C(Nc1nc(C(Cl)(Cl)Cl)nc2ccccc12)c1cccc(Cl)c1 [Molecule 12, 3-Chloro-N-(2-Trichloromethylquinazolin-4-yl)benzamide]		16.4		
1.3				O=C(Nc1nc(C(Cl)(Cl)Cl)nc2ccccc12)c1ccc(Br)cc1 [Molecule 14, 4-Bromo-N-(2-Trichloromethylquinazolin-4-yl)benzamide]		19.5		
			0.94	COc1ccc(C(=O)Nc2nc(C(Cl)(Cl)Cl)nc3ccccc23)cc1 [Molecule 16, 4-Methoxy-N-(2-Trichloromethylquinazolin-4-yl)benzamide]		27.7		
3.9	208			O=C(Nc1nc(C(Cl)(Cl)Cl)nc2ccccc12)c1cccnc1 [Molecule 18, N-(2-Trichloromethylquinazolin-4-yl)nicotinamide]		72.9	18.7	
1.8	151			O=C(Nc1nc(C(Cl)(Cl)Cl)nc2ccccc12)c1ccncc1 [Molecule 19, N-(2-Trichloromethylquinazolin-4-yl)isonicotinamide]		22.8	12.7	
